Patent publication US20250100982A1, “PLEUROMUTILIN DERIVATIVE WITH THIAZOLE SIDE CHAIN AND PREPARATION AND APPLICATION” (SOUTH CHINA AGRICULTURAL UNIVERSITY, priority 2023, published 2025)
In brackets after ≈: the same amount, converted by molar mass.

Assays:
[1] = system: methicillin-resistant Staphylococcus aureus ATCC43300; experiment: microbe, parasite or virus in culture; type: cell-based; conditions: 24 h; for MIC, MRSA ATCC 43300: broth dilution, 37° C.
Excerpt: (§1) A broth dilution method was used in the experiment. Tiamulin was selected as a control drug in the experiment. The tiamulin is a pleuromutilin antibiotic as well as one of the top ten veterinary antibiotics in the world.
(§2) The strains used in the experiment were methicillin-resistant Staphylococcus aureus ATCC43300, Staphylococcus aureus ATCC29213, clinical Staphylococcus aureus AD3, clinical S. aureus 144, Mycoplasma gallisepticum 352, 352 tiamulin induced drug-resistant bacteria and clinical isolates M47.
(§3) Preparation of target compound stock solution: 6.4 mg of target compound was accurately weighed, placed in a 5 mL volumetric flask, and dissolved with 0.25 mL of DMSO and 0.25 mL of Tween 80; then 4.5 mL of distilled water was added for fixing the volume; the solution was fully shaken to obtain a stock solution (1280 μg/mL); and the stock solution was filtered with a 0.22 μm filter membrane and sterilized, subpackaged into small tubes, and stored at −20° C. The control drug tiamulin was also prepared according to the above method.
(§4) Preparation of bacterial solution: the strains that were well preserved at −20° C. were taken out and inoculated on a new MH plate, and after culture at 37° C. for 24 h, a single colony was selected and inoculated in MH medium for culturing again for 24 h. The selected single colony was transferred to sterile normal saline and the turbidity was adjusted to 0.6 McF. At this moment, the concentration of the bacterial solution was 10^6 CFU/mL.
(§5) Preparation of MIC plate: a sterile 96-well plate was taken; 180 μL of MH broth medium was added to the first well, 100 μL of MH broth medium was added to the second well to the 12th well; 20 μL of target compound solution with a concentration of 1280 μg/mL was added to the first well; after even mixing, 100 μL of solution was added to the second well, and mixed well; 100 μL of solution was absorbed to the third well, and so on; and 100 μL of solution was absorbed to the 12th well and discarded. At this moment, the drug concentrations in the wells were: 128, 64, 32, 16, 8, 4, 2, 1, 0.5, 0.25, 0.125, and 0.06 μg/mL, and three parallel groups were made for the drugs of the concentrations.
(§6) Inoculation of bacterial solution: 100 μL of bacterial solution was added into the first well to the 12th well, so that the final bacterial solution concentration in each well was about 5×10^5 CFU/mL, and the drug concentrations in the first well to the 12th well were 64, 32, 16, 8, 4, 2, 1, 0.5, 0.25, 0.125, 0.06 and 0.03 μg/mL respectively. […] When a single jumping hole occurred in the microbroth dilution method, the maximum drug concentration for inhibiting bacteria was recorded, and the experiment shall be repeated if multiple jumping holes occurred.

[2] = system: Staphylococcus aureus ATCC29213; experiment: In vitro antibacterial experiment, broth dilution MIC; type: cell-based; conditions: 24 h; for MIC, S. aureus ATCC 29213: 37° C.
Excerpt: as §1, §2, §3, §4, §5, §6

[3] = system: clinical Staphylococcus aureus AD3; experiment: as above; type: cell-based; conditions: 37° C., 24 h, clinical isolate
Excerpt: as §1, §2, §3, §4, §5, §6

[4] = system: clinical S. aureus 144; experiment: as above; type: cell-based, Staphylococcus aureus; conditions: 37° C., 24 h, clinical isolate
Excerpt: as §1, §2, §3, §4, §5, §6

[5] = system: Mycoplasma gallisepticum 352; experiment: In vitro inhibition experiment of mycoplasma activity, broth dilution MIC; type: cell-based; conditions: for MIC, Mycoplasma gallisepticum 352: 37° C.
Experimental: (§7) The broth dilution method was adopted in the experiment. The tiamulin was selected as the control drug in the experiment.
(§8) The strains used in the experiment were Mycoplasma gallisepticum 352, 352-tiamulin resistant strain, and M47.
(§9) Preparation of the target compound stock solution: the compound was dissolved with 1 mL of DMSO, then fixed in volume with a 250 mL volumetric flask and fully shaken to obtain the stock solution (5120 μg/mL).
(§10) The stock solution was diluted in petri dishes with a doubling dilution method. Each petri dish contained 2 ml of medical solution, and the medical solution was diluted to 20 ml, so that the final concentrations of the compound were […] respectively.
(§11) 15 sterile 2 mL EP tubes were placed in each row. 0.9 mL of liquid medium was added to the first tube, and 0.5 mL of liquid medium was added to the other tubes respectively. 0.1 mL of prepared medical solution was added to the first tube and fully mixed. Then, 0.5 mL of medical solution was added to the second tube, and so on. Finally, 0.5 mL of medical solution was absorbed and discarded.

[6] = system: Mycoplasma gallisepticum M47; experiment: as above; type: cell-based; conditions: clinical isolate; for MIC, Mycoplasma gallisepticum M47: 37° C.
Experimental: as §7, §8, §9, §10, §11

[7] = system: Mycoplasma gallisepticum 352-tiamulin resistant strain; experiment: microbe, parasite or virus in culture; type: cell-based; conditions: for MIC, Mycoplasma gallisepticum 352-tiamulin resistant strain: broth dilution, 37° C.
Experimental: as §7, §8, §9, §10, §11

| Structure (SMILES) | MIC ([1]; Staphylococcus aureus, ATCC 43300 / MRSA, read-out: MIC, MRSA ATCC 43300) | MIC ([2]; Staphylococcus aureus, ATCC29213, 37° C., read-out: MIC, S. aureus ATCC 29213) | MIC ([3]; Staphylococcus aureus, read-out: MIC, S. aureus AD3) | MIC ([4]; Staphylococcus aureus) | MIC ([5]; Mycoplasmoides gallisepticum, 352, 37° C.) | MIC ([6]; Mycoplasmoides gallisepticum, M47, 37° C.) | MIC ([7]; Mycoplasmoides gallisepticum, read-out: MIC, Mycoplasma gallisepticum 352-tiamulin resistant strain) | MIC, MRSA ATCC 43300 [1] | MIC, S. aureus ATCC 29213 [2] | MIC, S. aureus AD3 [3] | MIC, S. aureus 144 [4] | MIC, Mycoplasma gallisepticum 352 [5] | MIC, Mycoplasma gallisepticum M47 [6] | MIC, Mycoplasma gallisepticum 352-tiamulin resistant strain [7] |
| --- | --- | --- | --- | --- | --- | --- | --- | --- | --- | --- | --- | --- | --- | --- |
| C=C[C@]1(C)C[C@@H](OC(=O)CSCCN(CC)CC)[C@]2(C)[C@H](C)CC[C@]3(CCC(=O)[C@H]32)[C@@H](C)[C@@H]1O [Tiamulin, reference compound] | 0.5 µg/mL (≈ 1.01 µM) | 1 µg/mL (≈ 2.03 µM) | 1 µg/mL (≈ 2.03 µM) | 1 µg/mL (≈ 2.03 µM) | ≤ 0.004 µg/mL | 0.125 µg/mL (≈ 0.253 µM) | 0.25 µg/mL (≈ 0.506 µM) |  |  |  |  |  |  |  |
| C=CC1(C)CC(OC(=O)CSc2ncc(NC(=O)C(C)(C)CC)s2)C2(C)C(C)CCC3(CCC(=O)C32)C(C)C1O (stereo not drawn) [Compound 18] |  |  |  |  |  |  |  | 0.25 µg/mL (≈ 0.423 µM) | 0.25 µg/mL (≈ 0.423 µM) | 0.25 µg/mL (≈ 0.423 µM) | 0.5 µg/mL (≈ 0.846 µM) | 0.03 µg/mL (≈ 0.0508 µM) | 1 µg/mL (≈ 1.69 µM) | 0.5 µg/mL (≈ 0.846 µM) |
| C=CC1(C)CC(OC(=O)CSc2ncc(NC(=O)C3CCC3)s2)C2(C)C(C)CCC3(CCC(=O)C32)C(C)C1O (stereo not drawn) [Compound 2] |  |  |  |  |  |  |  | 0.0625 µg/mL (≈ 0.109 µM) | 0.125 µg/mL (≈ 0.217 µM) | 0.125 µg/mL (≈ 0.217 µM) | 0.25 µg/mL (≈ 0.435 µM) | 0.008 µg/mL (≈ 0.0139 µM) | 0.5 µg/mL (≈ 0.87 µM) | 0.25 µg/mL (≈ 0.435 µM) |
| C=CC1(C)CC(OC(=O)CSc2ncc(NC(=O)C3CCCCC3)s2)C2(C)C(C)CCC3(CCC(=O)C32)C(C)C1O (stereo not drawn) [Compound 4] |  |  |  |  |  |  |  | 0.125 µg/mL (≈ 0.207 µM) | 0.03125 µg/mL (≈ 0.0518 µM) | 0.0625 µg/mL (≈ 0.104 µM) | 0.0625 µg/mL (≈ 0.104 µM) | 0.015 µg/mL (≈ 0.0249 µM) | 1 µg/mL (≈ 1.66 µM) | 0.25 µg/mL (≈ 0.415 µM) |
| C=CC1(C)CC(OC(=O)CSc2ncc(NC(=O)COC(C)=O)s2)C2(C)C(C)CCC3(CCC(=O)C32)C(C)C1O (stereo not drawn) [Compound 10] |  |  |  |  |  |  |  | 0.0625 µg/mL (≈ 0.105 µM) | 0.125 µg/mL (≈ 0.211 µM) | 0.125 µg/mL (≈ 0.211 µM) | 0.0625 µg/mL (≈ 0.105 µM) | ≤0.004 µg/mL | 0.03 µg/mL (≈ 0.0506 µM) | 0.03 µg/mL (≈ 0.0506 µM) |
| C=CC1(C)CC(OC(=O)CSc2ncc(NC(=O)C(Cl)(Cl)Cl)s2)C2(C)C(C)CCC3(CCC(=O)C32)C(C)C1O (stereo not drawn) [Compound 23] |  |  |  |  |  |  |  | 1 µg/mL (≈ 1.57 µM) | 2 µg/mL (≈ 3.13 µM) | 1 µg/mL (≈ 1.57 µM) | 2 µg/mL (≈ 3.13 µM) | 0.125 µg/mL (≈ 0.196 µM) | 4 µg/mL (≈ 6.27 µM) | 1 µg/mL (≈ 1.57 µM) |
